# Source: patent US20260015352A1, “METHYLTRANSFERASE INHIBITOR AND USE THEREOF” (CYTOSINLAB THERAPEUTICS CO., LTD., priority 2022, published 2026)
# Test system: G401 cells
# Test: G401 ELISA test
# Format: cell-based
# Settings: Homo sapiens, G-401; G401 cells treated with compounds for 72 hours; ELISA detecting K27 and H3; read-out: G401_ELISA IC50
# Method: • Plate Reader: Envision (Perkinelmner); plate shaker: IKA MTS 2/4; plate Washer: BioTek microplate wisher 405 select; Cell counter: Counterstar (Ruiyu-biotech); Cell culture incubator: MCO-15AC (ThermoFisher); Pipette: BioHit Multichannel. Pipette: 0.2-10 μL, 10-300 μL, 50-1200 μL; Centrifuge: Thermo Centrifuge ST 40R; Pure water system: Millipore Milli-Q Reference system; Refrigerator: Haier −80 degree, −20 degree, and 4-degree refrigerators; cell cryopreservation box: Mr. Frosty™ Gradient Cooling Box Cat #5100-0001
# • McCoys 5A (Modified) culture medium (ATCC); FBS (Gibco); 0.25% Trypsin/EDTA (Gibco); PBS (Hyclone); Penicillin/Streptomycin(100×) (Gibco); DMSO (Sigma); 384 cell culture plate (Corning); 384 detection plate (Greiner); 96 well plate (compound dilution) (Haimen, Qunchao); T75 Cell Culture Bottle (Corning)
# G401 cells were seeded in a 384-well cell culture plate and incubated overnight at 37° C. in a 5% CO2 cell culture incubator, after which the cells were treated with compounds of different concentrations for 72 hours. The 384-well cell culture plate was taken out and upside down in a centrifuge to centrifugeat 300 rpm for 1 minute. After centrifugation, the 384-well cell culture plate was washed twice with PBS, added with lysis solution and lysed for 60 minutes. Then neutralization buffer was added for mixing and incubation was continued for 30 minutes. 20 ul (for detecting K27) and 10 ul (for detecting H3) of cell lysate were extracted from the 384-well cell culture plate and transferred to a 384 ELISA detection plate and incubate overnight at 4° C. The next day, the 384 ELISA plate was taken out and washed 5 times with TBST in a microplate washer. Then, the plate was added with a blocking solution and sealed at room temperature for 1 hour. The blocking solution was discarded and the primary antibody was added and then the plate was incubated at room temperature for 1 hour. After incubation, the plate was washed with TBST 5 times in a microplate washer, then added with secondary antibody and incubated at room temperature for 1 hour. After incubation, the plate was washed with TBST 5 times in a microplate washer, and finally added with color developer for color development. The plate was read with Envision plate reader. The obtained data was converted into inhibition rate using the following calculation method: % Inhibition rate=100−100*(compound absorbance−positive control absorbance)/(negative control absorbance−positive control absorbance), and then the inhibition rate data was subjected to curve fitting using the “logarithmic (inhibitor) and reaction-variable slope (four parameters)” model in GraphPad Prism 5 software.
# The inhibition rate of the compound was calculated as follows: […]
# The compounds of the present invention were tested according to the above experimental method, and some results were shown in Table 3. The test results were classified by A, B, and C, wherein A represents IC50≤0.1 uM; B represents 0.1 uM<IC50≤1 uM; C represents IC50>1 uM
row,IC50 [µM],Compound
1,≤ 0.1,Cc1ccc2ccc(NC34CCC([C@H](C)Nc5ncc(CNC6CS(=O)(=O)C6)cn5)(CC3)CC4)nc2c1Cl [PA179]
2,≤ 0.1,COc1nccc2ccc(NC34CCC(C(C)Nc5ncc(CC(=O)NC6COC6)cn5)(CC3)CC4)nc12 (stereo not shown) [PA180]
3,≤ 0.1,COc1nccc2ccc(Nc3ccc([C@H](C)Nc4ncc(CNCCC#N)cn4)cc3F)nc12 [PA181]
4,≤ 0.1,COc1nccc2ccc(Nc3ccc([C@H](C)Nc4ncc(CNC5CCS(=O)(=O)C5)cn4)cc3F)nc12 (stereo partly shown) [PA182]
5,≤ 0.1,Cc1ccc2ccc(NC34CCC(C(C)Nc5ncc(CC(=O)NC6COC6)cn5)(CC3)CC4)nc2c1Cl (stereo not shown) [PA183]
6,≤ 0.1,CC(c1cnc(N[C@@H](C)C23CCC(Nc4ccc5ccnc(Cl)c5n4)(CC2)CC3)nc1)N1CCS(=O)(=O)CC1 (stereo partly shown) [PA184]
7,≤ 0.1,COc1nccc2ccc(Nc3ccc([C@H](C)Nc4ncc(CC(=O)N(CCC#N)C5COC5)cn4)cc3F)nc12 [PA185]
8,≤ 0.1,COc1nccc2ccc(Nc3ccc([C@H](C)Nc4ncc([C@H](C)C(=O)NC5COC5)cn4)cc3F)nc12 [PA186]
9,≤ 0.1,C[C@H](Nc1ncc(CC2CCS(=O)(=O)CC2)cn1)C12CCC(Nc3ccc4ccnc(Cl)c4n3)(CC1)CC2 [PA187]
10,≤ 0.1,C[C@H](Nc1ncc(CNCc2cnoc2)cn1)C12CCC(Nc3ccc4ccnc(Cl)c4n3)(CC1)CC2 [PA188]
11,≤ 0.1,COc1nccc2ccc(Nc3ccc([C@H](C)Nc4ncc(CN5CCN(S(C)(=O)=O)CC5)cn4)cc3F)nc12 [PA189]
12,≤ 0.1,COc1nccc2ccc(Nc3ccc([C@H](C)Nc4ncc(C(C)C(=O)NC5COC5)cn4)cc3F)nc12 (stereo partly shown) [PA190]
13,≤ 0.1,CC(C(=O)NCCC#N)c1cnc(N[C@@H](C)C23CCC(Nc4ccc5ccnc(Cl)c5n4)(CC2)CC3)nc1 (stereo partly shown) [PA191]
14,≤ 0.1,COc1nccc2ccc(Nc3ccc([C@H](C)Nc4ncc(CC(=O)N(CCC#N)CCC#N)cn4)cc3F)nc12 [PA192]
15,≤ 0.1,COc1nccc2ccc(Nc3ccc([C@H](C)Nc4ncc(CC(=O)NC5COC5)cn4)cc3F)nc12 [PA193]
16,≤ 0.1,COc1nccc2ccc(Nc3ccc([C@H](C)Nc4ncc(CN5CCS(=O)(=O)CC5)cn4)cc3F)nc12 [PA194]
17,≤ 0.1,COc1nccc2ccc(Nc3ccc([C@H](C)Nc4ncc(CC5CCS(=O)(=O)CC5)cn4)cc3F)nc12 [PA195]
18,≤ 0.1,COc1nccc2ccc(Nc3ccc([C@H](C)Nc4ncc(CNC5CC(C#N)C5)cn4)cc3F)nc12 (stereo partly shown) [PA196]
19,≤ 0.1,COc1cccc2ccc(Nc3ccc(CNc4ncc(CC(=O)NC5COC5)cn4)cc3F)nc12 [PA197]
20,≤ 0.1,COc1nccc2ccc(Nc3ccc(CNc4ncc(CNCc5cnoc5)cn4)cc3F)nc12 [PA198]
21,≤ 0.1,COc1nccc2ccc(Nc3ccc([C@H](C)Nc4ncc(N5CC(CC#N)C5)cn4)cc3F)nc12 [PA199]
22,≤ 0.1,COc1nccc2ccc(Nc3ccc([C@H](C)Nc4ncc(CC(=O)NCCC#N)cn4)cc3F)nc12 [PA200]

row,IC50 [µM],Compound
1,≤ 0.1,COc1nccc2ccc(Nc3ccc([C@H](C)Nc4ncc(CNC5CC(F)(F)C5)cn4)cc3F)nc12 [PA201]
2,≤ 0.1,CC(C(=O)N(CCC#N)CCC#N)c1cnc(N[C@@H](C)C23CCC(Nc4ccc5ccnc(Cl)c5n4)(CC2)CC3)nc1 (stereo partly shown) [PA202]
3,≤ 0.1,COc1nccc2ccc(Nc3ccc(CNc4ncc(CNCc5cnco5)cn4)cc3F)nc12 [PA203]
4,≤ 0.1,COc1nccc2ccc(Nc3ccc(C(C)Nc4ncc(CC(=O)NC5COC5)cn4)cc3F)nc12 (stereo not shown) [PA204]
5,≤ 0.1,COc1nccc2ccc(Nc3ccc([C@H](C)Nc4ncc(C(N)C(=O)NC5COC5)cn4)cc3F)nc12 (stereo partly shown) [PA205]
6,≤ 0.1,COc1nccc2ccc(Nc3ccc([C@H](C)Nc4ncc(N5CC(C#N)C5)cn4)cc3F)nc12 [PA206]
7,0.1 to 1,COc1nccc2ccc(Nc3ccc(CNc4ncc(NCc5cnoc5)cn4)cc3F)nc12 [PA208]
8,0.1 to 1,C[C@@H](Nc1ncc(CC(=O)NC2COC2)cn1)C12CCC(Nc3ccc4ccnc(Cl)c4n3)(CC1)CC2 [PA209]
9,0.1 to 1,COc1nccc2ccc(Nc3ccc([C@H](C)Nc4ncc(/C=C/C5CCS(=O)(=O)CC5)cn4)cc3F)nc12 [PA210]
10,0.1 to 1,COc1nccc2ccc(Nc3ccc(CNc4ncc(CCNC5COC5)cn4)cc3)nc12 [PA211]
11,0.1 to 1,COc1nccc2ccc(Nc3ccc([C@H](C)Nc4ncc(CC(=O)NC5CS(=O)(=O)C5)cn4)cc3F)nc12 [PA212]
12,0.1 to 1,COc1nccc2ccc(Nc3ccc([C@H](C)Nc4ncc(C=CC5CCS(=O)(=O)CC5)cn4)cc3F)nc12 [PA213]
13,0.1 to 1,COc1nccc2ccc(Nc3ccc([C@H](C)Nc4ncc(N5CCC(C#N)CC5)cn4)cc3F)nc12 [PA214]
14,0.1 to 1,COc1nccc2ccc(Nc3ccc(CNc4ncc(CC(=O)N5CCC56COC6)cn4)cc3F)nc12 [PA215]
15,0.1 to 1,COc1nccc2ccc(Nc3ccc([C@H](C)Nc4ncc(CC(=O)NC5CC(F)(F)C5)cn4)cc3F)nc12 [PA216]
16,0.1 to 1,COc1nccc2ccc(Nc3ccc([C@H](C)Nc4ncc(N(C)C(=O)NC5COC5)cn4)cc3F)nc12 [PA217]
17,0.1 to 1,COc1nccc2ccc(Nc3ccc([C@H](CO)Nc4ncc(CC(=O)NC5COC5)cn4)cc3F)nc12 [PA218]
18,0.1 to 1,COc1nccc2ccc(Nc3ccc([C@H](C)Nc4ncc(CCc5cc(C#N)n[nH]5)cn4)cc3F)nc12 [PA219]
19,0.1 to 1,COc1nccc2ccc(Nc3ccc(CNc4ncc(CNCC5CCOC5)cn4)cc3F)nc12 (stereo not shown) [PA220]
20,0.1 to 1,COc1nccc2ccc(Nc3ccc(CNc4ncc(CNCc5ccon5)cn4)cc3F)nc12 [PA221]
21,0.1 to 1,COc1nccc2ccc(Nc3ccc([C@H](C)Nc4ncc(CC(=O)NC5CCCC5OC)cn4)cc3F)nc12 (stereo partly shown) [PA222]
22,0.1 to 1,COc1nccc2ccc(Nc3ccc([C@H](C)Nc4ncc(CCNC5CC(F)(F)C5)cn4)cc3F)nc12 [PA223]

row,IC50 [µM],Compound
1,0.1 to 1,COc1nccc2ccc(Nc3ccc(CNc4ncc(CC(=O)N5CCC(C#N)CC5)cn4)cc3F)nc12 [PA224]
2,0.1 to 1,COc1nccc2ccc(Nc3ccc([C@H](C)Nc4ncc([C@@H](C)C(=O)NC5COC5)cn4)cc3F)nc12 [PA225]
3,0.1 to 1,COc1nccc2ccc(Nc3ccc(CNc4ncc(CC(=O)N5CCOCC5)cn4)cc3F)nc12 [PA226]
4,0.1 to 1,COc1nccc2ccc(Nc3ccc(CNc4ncc(CN5CCC(O)CC5)cn4)cc3F)nc12 [PA227]
5,0.1 to 1,O=C(Cc1ccc(NCC23CCC(Nc4ccc5ccnc(Cl)c5n4)(CC2)CC3)nc1)NC1COC1 [PA228]
6,0.1 to 1,COc1nccc2ccc(NC34CCC(CNc5ncc(CC(=O)NC6COC6)cn5)(CC3)OC4)nc12 [PA229]
7,0.1 to 1,COc1nccc2ccc(Nc3ccc(CNc4ncc(CC(=O)N5CCC(O)CC5)cn4)cc3F)nc12 [PA230]
8,0.1 to 1,COc1nccc2ccc(Nc3ccc(CNc4ncc(CC(N)=O)cn4)cc3F)nc12 [PA231]
9,0.1 to 1,COc1nccc2ccc(Nc3ccc(CNc4ncc(CC(=O)N5CCC(O)C5)cn4)cc3F)nc12 (stereo not shown) [PA232]
10,0.1 to 1,COc1nccc2ccc(Nc3ccc([C@H](C)Nc4ccc(CC(=O)NC5COC5)cn4)cc3F)nc12 [PA233]
11,0.1 to 1,COc1nccc2ccc(Nc3ccc(CNc4ncc(CNCc5cn[nH]c5)cn4)cc3F)nc12 [PA234]
12,0.1 to 1,COc1nccc2ccc(Nc3ccc([C@H](C)Nc4ncc(CCN(C)C5CC(F)(F)C5)cn4)cc3F)nc12 [PA235]
13,0.1 to 1,COc1nccc2ccc(Nc3ccc(C(CO)Nc4ncc(CC(=O)NC5COC5)cn4)cc3F)nc12 (stereo not shown) [PA236]
14,0.1 to 1,COc1nccc2ccc(Nc3ccc([C@H](C)Nc4ccc(NC(=O)NC5COC5)cn4)cc3F)nc12 [PA238]
15,0.1 to 1,COc1nccc2ccc(Nc3ccc(CNc4ncc(CNCc5cocn5)cn4)cc3F)nc12 [PA239]
16,0.1 to 1,COc1nccc2ccc(Nc3ccc([C@H](C)Nc4ncc(CNCC5CC(F)(F)C5)cn4)cc3F)nc12 [PA240]
17,0.1 to 1,COc1nccc2ccc(Nc3ccc([C@H](C)Nc4c(F)cc(CNC5CS(=O)(=O)C5)cc4F)cc3F)nc12 [PA241]
18,> 1,COc1nccc2ccc(Nc3ccc(CNc4ncc(CNCCO)cn4)cc3F)nc12 [PA242]
19,> 1,O=C(Cc1cnc(NCc2ccc(Nc3ccc4c(Cl)nccc4n3)cc2)nc1)NC1COC1 [PA243]
20,> 1,COc1nccc2ccc(Nc3ccc(CNc4ncc(N5CCC(OC)C5)cn4)cc3F)nc12 (stereo not shown) [PA244]
